Laboratory results reported in US20230212171A1, “ALLOSTERIC EGFR INHIBITORS AND METHODS OF USE THEREOF” (Dana-Farber Cancer Institute, Inc., priority 2020, published 2023).
Counter-ions that a name gives are not always drawn. Like-named read-outs stand apart in the source and are kept apart here.

Experiments:
[1] = molecular target: EGFR mutant L858R/T790M Ba/F3 cells (Homo sapiens, UniProt P00533, T790M/L858R, cells depend on it); assay: Ba/F3 cell proliferation model (Cell Titer Glo), EGFR L858R/T790M; type: cell-based, murine; conditions: 72 hours
Sequence of EGFR mutant L858R/T790M Ba/F3 cells (P00533 whole entry T790M/L858R): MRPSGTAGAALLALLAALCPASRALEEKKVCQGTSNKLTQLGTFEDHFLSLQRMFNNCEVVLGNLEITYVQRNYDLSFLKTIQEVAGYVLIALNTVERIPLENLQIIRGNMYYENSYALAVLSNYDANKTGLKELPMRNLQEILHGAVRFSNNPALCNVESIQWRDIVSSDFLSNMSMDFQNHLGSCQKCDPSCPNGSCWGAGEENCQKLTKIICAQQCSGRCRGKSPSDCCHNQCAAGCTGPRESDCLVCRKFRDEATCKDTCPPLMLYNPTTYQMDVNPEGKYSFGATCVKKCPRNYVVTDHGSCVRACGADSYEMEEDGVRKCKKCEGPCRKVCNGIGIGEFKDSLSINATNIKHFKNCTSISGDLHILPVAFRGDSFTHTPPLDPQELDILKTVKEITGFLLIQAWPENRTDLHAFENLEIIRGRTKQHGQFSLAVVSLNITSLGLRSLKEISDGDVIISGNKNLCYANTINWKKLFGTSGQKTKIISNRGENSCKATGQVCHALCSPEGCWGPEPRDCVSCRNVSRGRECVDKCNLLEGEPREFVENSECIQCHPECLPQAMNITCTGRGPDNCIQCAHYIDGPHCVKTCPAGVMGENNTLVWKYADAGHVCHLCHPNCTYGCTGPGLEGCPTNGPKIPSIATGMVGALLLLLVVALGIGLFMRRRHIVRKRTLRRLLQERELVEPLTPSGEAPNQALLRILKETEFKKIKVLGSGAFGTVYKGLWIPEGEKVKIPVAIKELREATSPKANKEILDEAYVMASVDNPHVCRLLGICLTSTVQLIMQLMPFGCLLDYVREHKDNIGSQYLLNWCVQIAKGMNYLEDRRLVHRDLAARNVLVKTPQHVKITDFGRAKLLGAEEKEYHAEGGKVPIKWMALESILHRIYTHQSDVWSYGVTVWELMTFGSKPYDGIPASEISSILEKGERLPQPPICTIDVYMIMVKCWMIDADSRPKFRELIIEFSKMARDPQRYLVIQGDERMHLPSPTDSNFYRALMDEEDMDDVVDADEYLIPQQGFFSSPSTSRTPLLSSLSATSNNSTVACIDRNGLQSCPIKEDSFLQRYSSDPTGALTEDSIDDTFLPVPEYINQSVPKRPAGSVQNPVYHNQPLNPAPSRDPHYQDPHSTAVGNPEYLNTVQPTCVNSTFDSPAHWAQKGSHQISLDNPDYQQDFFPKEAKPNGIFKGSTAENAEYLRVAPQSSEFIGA
Source text: (§1) The EGFR mutant L858R and L858R/T790M Ba/F3 cells have been previously described (Zhou, W., et al. Nature 462, 2009, 1070-1074). All cell lines were maintained in RPMI 1640 (Cellgro; Mediatech Inc., Herndon, CA) supplemented with 10% FBS, 100 units/mL penicillin, 100 units/mL streptomycin. The EGFR I941R mutation was introduced via site directed mutagenesis using the Quick Change Site-Directed Mutagenesis kit (Stratagene; La Jolla, CA) according to the manufacturer’s instructions. All constructs were confirmed by DNA sequencing. The constructs were shuttled into the retroviral vector JP1540 using the Cre-recombination system (Agilent Technologies, Santa Clara, CA). Ba/F3 cells were then infected with retrovirus per standard protocols, as described previously (Zhou, et al, Nature 2009). Stable clones were obtained by selection in puromycin (2 µg/ml).
(§2) Growth and inhibition of growth was assessed by the Cell Titer Glo assay (Promega, Madison, WI) and was performed according to the manufacturer’s instructions. The Cell Titer Glo assay is a luminescence-based method used to determine the number of viable cells based on quantitation of the ATP present, which is directly proportional to the amount of metabolically active cells present. Ba/F3 cells of different EGFR genotypes were exposed to compounds as a single agent or in combination with 1 µg/mL cetuximab for 72 hours and the number of cells used per experiment was determined empirically as has been previously established (Zhou, et al., Nature 2009). All experimental points were set up in triplicates in 384-well plates and all experiments were repeated at least three times. […] The curves were fitted using a non-linear regression model with a sigmoidal dose response.

[2] = molecular target: EGFR L858R (Homo sapiens, UniProt P00533, L858R); assay: HTRF-based EGFR biochemical assay (L858R); conditions: enzyme 0.1 nM, ATP 100 µM, 30 min preincubation
Sequence of EGFR L858R (P00533 25-1210 L858R): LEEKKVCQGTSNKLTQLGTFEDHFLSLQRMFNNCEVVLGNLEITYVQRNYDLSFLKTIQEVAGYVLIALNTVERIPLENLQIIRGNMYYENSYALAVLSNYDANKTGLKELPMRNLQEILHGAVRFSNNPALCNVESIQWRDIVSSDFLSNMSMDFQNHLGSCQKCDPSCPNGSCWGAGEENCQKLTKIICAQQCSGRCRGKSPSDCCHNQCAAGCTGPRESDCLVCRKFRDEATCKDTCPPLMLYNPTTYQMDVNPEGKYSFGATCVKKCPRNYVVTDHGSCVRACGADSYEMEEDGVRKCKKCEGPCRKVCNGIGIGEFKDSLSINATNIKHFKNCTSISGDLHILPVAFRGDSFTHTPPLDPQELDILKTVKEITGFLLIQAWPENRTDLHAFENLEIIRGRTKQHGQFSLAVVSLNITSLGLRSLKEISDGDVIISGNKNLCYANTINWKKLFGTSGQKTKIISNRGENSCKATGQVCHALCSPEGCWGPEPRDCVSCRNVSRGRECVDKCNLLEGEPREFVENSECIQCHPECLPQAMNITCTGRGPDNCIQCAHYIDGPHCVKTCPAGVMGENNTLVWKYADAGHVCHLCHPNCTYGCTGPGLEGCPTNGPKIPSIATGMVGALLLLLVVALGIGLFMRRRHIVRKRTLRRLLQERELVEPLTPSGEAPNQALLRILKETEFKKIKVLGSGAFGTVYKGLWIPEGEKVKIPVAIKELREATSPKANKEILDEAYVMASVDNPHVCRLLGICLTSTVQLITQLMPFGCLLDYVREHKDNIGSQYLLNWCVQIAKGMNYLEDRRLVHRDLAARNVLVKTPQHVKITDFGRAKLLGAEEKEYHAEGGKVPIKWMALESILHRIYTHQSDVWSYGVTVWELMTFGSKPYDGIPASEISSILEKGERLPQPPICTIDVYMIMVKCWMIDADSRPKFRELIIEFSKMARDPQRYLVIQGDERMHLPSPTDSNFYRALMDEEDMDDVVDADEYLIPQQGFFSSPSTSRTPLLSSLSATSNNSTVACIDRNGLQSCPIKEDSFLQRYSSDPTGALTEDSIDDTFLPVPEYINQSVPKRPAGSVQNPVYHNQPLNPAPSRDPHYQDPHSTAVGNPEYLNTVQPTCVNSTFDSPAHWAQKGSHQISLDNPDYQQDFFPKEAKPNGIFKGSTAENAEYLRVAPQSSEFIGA
Experimental: (§3) EGFR biochemical activity measurements were carried out using the homogeneous time-resolved fluorescence (HTRF) assay (Cisbio). Inhibitors and DMSO normalizations were first dispensed to empty black low-volume 384-well plates (Corning) with D300 digital liquid dispenser (HP). All reactions were carried out at room temperature and solutions were added to plates with a Multidrop Combi Reagent Dispenser (ThermoFisher). The reaction mixture (10 µL final volume) contained 1 µM tyrosine kinase peptide-biotin substrate and mutant EGFR in a reaction buffer (50 mM HEPES pH 7.0, 5 mM MgCl2, 1 mM MnCl2, 0.01% BSA, 2 mM TCEP, 0.1 mM NaVO4). Enzyme concentrations were adjusted to accommodate varying kinase activities (L858R 0.1 nM, L858R/T790M 0.02 nM). Enzyme reaction solution (2× concentrations, 5 µL) was added to 384-well plates containing compounds and incubated for 30 mins. Enzyme reactions were initiated with the addition of 5 µL of ATP to a final concentration of 100 µM and reacted for 20 mins. Reactions were quenched with the addition of 10 µL of phospho-tyrosine antibody-Europium(III) cryptate (1-to-180 volume ratio) and Streptavidin-XL665 (46.7 nM) in EDTA-containing detection buffer, then incubated at room temperature for 1 hour, and read with a PHERAstar plate reader (excitation = 337 nm, emission = 620 nm and 665 nm). IC50 values were determined by inhibition curves (11-point curves from 1.0 µM to 0.130 nM or 23-point curves from 1.0 µM to 0.130 pM) in triplicate with non-linear least squares fit in GraphPad Prism 7.0d.

[3] = molecular target: EGFR L858R/T790M (Homo sapiens, UniProt P00533, L858R/T790M); assay: HTRF-based EGFR biochemical assay (L858R/T790M); conditions: enzyme 0.02 nM, ATP 100 µM, 30 min preincubation
Sequence of EGFR L858R/T790M (P00533 25-1210 T790M/L858R): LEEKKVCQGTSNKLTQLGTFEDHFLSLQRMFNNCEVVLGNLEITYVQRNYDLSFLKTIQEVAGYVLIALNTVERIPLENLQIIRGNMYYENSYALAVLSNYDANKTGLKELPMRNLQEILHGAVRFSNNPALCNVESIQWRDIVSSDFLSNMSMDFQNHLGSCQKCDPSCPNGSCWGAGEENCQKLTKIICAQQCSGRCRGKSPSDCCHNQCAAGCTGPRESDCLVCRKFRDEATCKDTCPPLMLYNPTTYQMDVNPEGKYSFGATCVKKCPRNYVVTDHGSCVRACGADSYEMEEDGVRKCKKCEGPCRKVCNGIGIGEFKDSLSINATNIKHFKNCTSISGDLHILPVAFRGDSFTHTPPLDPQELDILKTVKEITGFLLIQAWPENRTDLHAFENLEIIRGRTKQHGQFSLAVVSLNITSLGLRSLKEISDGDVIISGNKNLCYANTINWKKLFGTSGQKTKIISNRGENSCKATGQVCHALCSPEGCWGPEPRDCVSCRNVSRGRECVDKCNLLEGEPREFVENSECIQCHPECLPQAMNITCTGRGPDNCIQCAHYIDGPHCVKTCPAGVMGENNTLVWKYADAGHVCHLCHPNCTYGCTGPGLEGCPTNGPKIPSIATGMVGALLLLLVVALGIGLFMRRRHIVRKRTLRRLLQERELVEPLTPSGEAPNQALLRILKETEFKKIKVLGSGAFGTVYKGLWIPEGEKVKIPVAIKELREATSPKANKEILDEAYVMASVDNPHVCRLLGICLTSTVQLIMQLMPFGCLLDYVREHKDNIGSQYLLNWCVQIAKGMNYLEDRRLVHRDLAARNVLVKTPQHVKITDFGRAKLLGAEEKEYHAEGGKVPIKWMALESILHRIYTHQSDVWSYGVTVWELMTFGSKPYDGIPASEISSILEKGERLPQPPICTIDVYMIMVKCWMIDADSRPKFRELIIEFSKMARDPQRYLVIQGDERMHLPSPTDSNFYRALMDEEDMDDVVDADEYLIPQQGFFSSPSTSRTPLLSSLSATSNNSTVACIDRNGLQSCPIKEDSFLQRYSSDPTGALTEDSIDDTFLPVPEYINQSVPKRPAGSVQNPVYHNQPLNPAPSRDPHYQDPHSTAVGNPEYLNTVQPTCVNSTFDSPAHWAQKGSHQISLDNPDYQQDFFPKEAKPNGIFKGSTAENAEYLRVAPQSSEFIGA
Experimental: as §3

[4] = molecular target: EGFR mutant L858R Ba/F3 cells (Homo sapiens, UniProt P00533, L858R, cells depend on it); assay: Ba/F3 cell proliferation model (Cell Titer Glo), EGFR L858R; type: cell-based, murine; conditions: single agent, 72 hours; read-out: Cell ICso BaF3 EGFR L858R
Sequence of EGFR mutant L858R Ba/F3 cells (P00533 whole entry L858R): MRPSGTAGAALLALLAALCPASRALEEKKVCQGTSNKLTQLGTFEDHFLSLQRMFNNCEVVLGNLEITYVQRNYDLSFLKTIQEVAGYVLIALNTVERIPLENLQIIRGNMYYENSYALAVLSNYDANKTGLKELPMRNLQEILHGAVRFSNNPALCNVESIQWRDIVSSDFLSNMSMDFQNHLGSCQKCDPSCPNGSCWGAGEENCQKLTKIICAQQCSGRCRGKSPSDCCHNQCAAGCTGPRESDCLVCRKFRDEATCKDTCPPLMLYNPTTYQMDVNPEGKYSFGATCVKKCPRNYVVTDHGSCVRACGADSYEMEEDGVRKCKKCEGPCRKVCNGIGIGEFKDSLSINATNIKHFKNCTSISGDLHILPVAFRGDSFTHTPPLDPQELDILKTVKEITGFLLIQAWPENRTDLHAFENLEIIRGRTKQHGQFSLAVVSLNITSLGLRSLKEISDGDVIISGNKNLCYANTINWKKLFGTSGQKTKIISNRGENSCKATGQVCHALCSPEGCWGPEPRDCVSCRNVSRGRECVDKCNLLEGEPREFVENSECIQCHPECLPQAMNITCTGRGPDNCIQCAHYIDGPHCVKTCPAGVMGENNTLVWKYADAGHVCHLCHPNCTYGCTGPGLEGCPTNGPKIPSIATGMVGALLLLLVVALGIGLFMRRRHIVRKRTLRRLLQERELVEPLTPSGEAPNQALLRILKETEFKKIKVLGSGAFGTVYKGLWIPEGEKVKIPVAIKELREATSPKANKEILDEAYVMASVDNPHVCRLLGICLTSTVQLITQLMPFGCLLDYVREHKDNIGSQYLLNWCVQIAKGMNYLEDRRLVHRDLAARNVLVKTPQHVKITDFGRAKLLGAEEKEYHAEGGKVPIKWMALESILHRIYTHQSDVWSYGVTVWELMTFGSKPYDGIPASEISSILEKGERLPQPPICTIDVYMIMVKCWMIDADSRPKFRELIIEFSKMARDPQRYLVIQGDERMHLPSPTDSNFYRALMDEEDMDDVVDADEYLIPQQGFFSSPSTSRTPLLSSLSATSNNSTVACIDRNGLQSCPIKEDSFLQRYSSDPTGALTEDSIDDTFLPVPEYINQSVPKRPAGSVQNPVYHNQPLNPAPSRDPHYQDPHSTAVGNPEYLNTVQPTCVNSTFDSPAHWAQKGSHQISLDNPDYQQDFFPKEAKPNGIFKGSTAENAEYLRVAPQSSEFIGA
Source text: as §1, §2

[5] = single agent, read-out: Cell IC50 BaF3 EGFR L858R/T790M

SMILES | GI50 [1, 5] | IC50 [2] | IC50 [3] | GI50 [4] | GI50 ([1]; in combination with 1 µg/mL cetuximab, read-out: Cell IC50 BaF3 EGFR L858R/T790M (+ cetux.))
CN1CCC(c2ccc(-c3cc4ccn([C@@H](c5nc6ccccc6[nH]5)c5cc(F)ccc5O)c(=O)c4s3)cc2)CC1 (single isomer, unassigned) [Compound 015] | 0.01 µM | 0.0009 µM | 0.0002 µM | 0.04 µM | 
CN1CCC(c2ccc(-c3cc4ccn([C@H](c5nc6ccccc6[nH]5)c5cc(F)ccc5O)c(=O)c4s3)cc2)CC1 (single isomer, unassigned) [Compound 016] |  | 0.041 µM | 0.017 µM |  | 
CN1CCC(c2ccc(-c3cc4c(=O)n(C(C(=O)Nc5nccs5)c5ccccc5)cnn4c3)cc2)CC1 (stereo not drawn) [Compound 001, 2-(6-(4-(1-Methylpiperidin-4-Yl)Phenyl)-4-Oxopyrrolo[2,1-f][1,2,4]-Triazin-3(4H)-Yl)-2-Phenyl-N-(Thiazol-2-yl)Acetamide;Hydrochloride] | 2.3 µM | 0.005 µM | 0.001 µM |  | 0.09 µM
CN1CCC(c2ccc(-c3cc4c(=O)n(C(c5ccccc5)c5nc6ccccc6[nH]5)cnn4c3)cc2)CC1 (stereo not drawn) [Compound 002, 3-((1H-Benzo[d]Imidazol-2-Yl)(Phenyl)Methyl)-6-(4-(1-Methylpiperidin-4-Yl)Phenyl)Pyrrolo [2,1-f][1,2,4]Triazin-4(3H)-One;Hydrochloride] | 2.63 µM | > 0.1 µM | > 0.1 µM | 2.24 µM | 
CN1CCC(c2ccc(-c3cc4ncn(C(C(=O)Nc5nccs5)c5ccccc5)c(=O)c4s3)cc2)CC1 (stereo not drawn) [Compound 003, 2-(6-(4-(1-Methylpiperidin-4-Yl)Phenyl)-4-Oxothieno[3,2-d)Pyrimidin-3(4H)-Yl)-2-Phenyl-N-(Thiazol-2-Yl)Acetamide] | 0.89 µM | 0.031 µM | 0.029 µM | 0.85 µM | 
CN1CCC(c2ccc(-c3cc4ncn(C(c5ccccc5)c5nc6ccccc6[nH]5)c(=O)c4s3)cc2)CC1 (stereo not drawn) [Compound 004, 3-((1H-benzo[d]imidazol-2-yl)(phenyl)methyl)-6-(4-(1-methylpiperidin-4-yl)phenyl)thieno[3,2-d]pyrimidin-4(3H)-one] | 3.68 µM | > 0.1 µM | > 0.1 µM | 4.57 µM | 
CN1CCC(c2ccc(-c3cc4c(=O)n(C(C(=O)Nc5nccs5)c5ccccc5)ccc4s3)cc2)CC1 (stereo not drawn) [Compound 005, 2-[2-[4-(1-methyl-4-piperidyl)phenyl]-4-oxo-thieno[3,2-c]pyridin-5-yl]-2-phenyl-N-thiazol-2-yi-acetamide] | 2.04 µM | 0.003 µM | 0.0008 µM | 1.55 µM | 
CN1CCC(c2ccc(-c3cc4c(=O)n(C(c5ccccc5)c5nc6ccccc6[nH]5)ccc4s3)cc2)CC1 (stereo not drawn) [Compound 006] | 3.55 µM | 0.021 µM | 0.019 µM | 3.13 µM | 
CN1CCC(c2ccc(-c3cc4ccn(C(C(=O)Nc5nccs5)c5ccccc5)c(=O)c4s3)cc2)CC1 (stereo not drawn) [Compound 007, 2-[2-[4-(1-methyl-4-piperidyl)phenyl]-7-oxo-thieno[2,3-c]pyridin-6-yl]-2-phenyl-N-thiazol-2-yl-acetamide;hydrochloride] | 0.57 µM | 0.003 µM | 0.0006 µM | 0.36 µM | 
CN1CCC(c2ccc(-c3cc4ccn(C(c5ccccc5)c5nc6ccccc6[nH]5)c(=O)c4s3)cc2)CC1 (stereo not drawn) [Compound 008, 6-[1H-benzimidazol-2-yl(phenyl)methyl]-2-[4-(1-methyl-4-piperidyl)phenyl]thieno[2,3-c]pyridin-7-one;hydrochloride] | 1.67 µM | 0.027 µM | 0.029 µM | 1.87 µM | 
CN1CCC(c2ccc(-c3cc4ccn(C(c5nc6ccccc6[nH]5)c5cc(F)ccc5O)c(=O)c4s3)cc2)CC1 (stereo not drawn) [Compound 009, 6-[1H-benzimidazol-2-yl-(5-fluoro-2-hydroxy-phenyl)methyl]-2-[4-(1-methyl-4-piperidyl)phenyl]thieno[2,3-c]pyridin-7-one;dihydrochloride] | 0.02 µM | 0.002 µM | 0.0006 µM | 0.07 µM | 
CN1CCC(c2ccc(-c3ccc4c(c3)N(C)C(=O)N(C(c3nc5ccccc5[nH]3)c3cc(F)ccc3O)C4)cc2)CC1 (stereo not drawn) [Compound 017, 3-[1H-benzimidazol-2-yl-(5-fluoro-2-hydroxy-phenyl)methyl]-1-methyl-7-[4-(1-methyl-4-piperidyl)phenyl]-4H-quinazolin-2-one;dihydrochloride] | 1.09 µM |  |  |  | 
CN1CCC(c2ccc(-c3cc4c(F)cn(C(C(=O)Nc5nccs5)c5cc(F)ccc5O)c(=O)c4s3)cc2)CC1 (stereo not drawn) [Compound 019, 2-(4-Fluoro-2-(4-(1-Methylpiperidin-4-Yl)Phenyl)-7-Oxothieno[2,3-c]Pyridin-6(7H)-Yl)-2-(5-Fluoro-2-Hydroxyphenyl)-N-(Thiazol-2-Yl)Acetamide] |  | 0.0007 µM | 0.0005 µM |  | 
CN1CCC(c2ccc(-c3cc4c(F)cn(C(c5nc6ccccc6[nH]5)c5cc(F)ccc5O)c(=O)c4s3)cc2)CC1 (stereo not drawn) [Compound 020, 6-((1H-Benzo[d]Imidazol-2-Yl)(5-Fluoro-2-Hydroxyphenyl)Methyl)-4-Fluoro-2-(4-(1-methylpiperidin-4-Yl)Phenyl)Thieno[2,3-c]Pyridin-7(6H)-One] |  | 0.0002 µM | 0.0002 µM |  | 
CN1CCC(c2ccc(-c3nc4c(s3)C(=O)N(C(C(=O)Nc3nccs3)c3cc(F)ccc3O)CC4)cc2)CC1 (stereo not drawn) [Compound 021, 2-(5-Fluoro-2-hydroxyphenyl)-2-(2-(4-(1-methylpiperidin-4-yl)phenyl)-4-oxo-6,7-dihydrothiazolo[5,4-c]pyridin-5(4H)-yl)-N-(thiazol-2-yl)acetamide] |  | 0.002 µM | 0.0006 µM |  | 
CN1CCC(c2ccc(-c3nc4c(s3)C(=O)N(C(c3nc5ccccc5[nH]3)c3cc(F)ccc3O)CC4)cc2)CC1 (stereo not drawn) [Compound 022, 5-((1H-Benzo[d]imidazol-2-yl)(5-fluoro-2-hydroxyphenyl)methyl)-2-(4-(1-methylpiperidin-4-yl)phenyl)-6,7-dihydrothiazolo[5,4-c]pyridin-4(5H)-one] |  | 0.012 µM | 0.011 µM |  | 
CN1CCC(c2ccc(-c3nc4ccn(C(c5nc6ccccc6[nH]5)c5cc(F)ccc5O)c(=O)c4s3)cc2)CC1 (stereo not drawn) [Compound 023, 5-((1H-Benzo[d]imidazol-2-yl)(5-fluoro-2-hydroxyphenyl)methyl)-2-(4-(1-methylpiperidin-4-yl)phenyl)thiazolo[5,4-c]pyridin-4(5H)-one] |  | 0.007 µM | 0.003 µM |  | 
[2H]C(c1nc2ccccc2[nH]1)(c1cc(F)ccc1O)n1ccc2cc(-c3ccc(C4CCN(C)CC4)cc3)sc2c1=O (stereo not drawn) [Compound 024, 6-((1H-Benzo[d]Imidazol-2-yl)(5-Fluoro-2-Hydroxyphenyl)Methyl-d)-2-(4-(1-Methylpiperidin-4-Yl)Phenyl)Thieno[2,3-c]Pyridin-7(6H)-One] |  | 0.002 µM | 0.0007 µM |  | 
CN1CCC(c2ccc(-c3cc4ccn(C(c5ccccc5)c5cc6ccccc6[nH]5)c(=O)c4s3)cc2)CC1 (stereo not drawn) [Compound 025, 6-((1H-Indol-2-Yl)(Phenyl)Methyl)-2-(4-(1-Methylpiperidin-4-Yl)Phenyl)Thieno[2,3-c]Pyridin-7(6H)-One] |  | 0.009 µM | 0.007 µM |  | 
